Results on 5 compounds are retold here after PubChem BioAssay AID2060325 (Molecular Pharmacology Branch, DTP, NCI, 2025).

This test deals with SK-OV-3 multi-cell spheroids, viability. The test can be described thus: Anticancer human tumor SK-OV-3 cell line growth inhibition [IpAb].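 As to viability, T/C: viability read after seven days of drug exposure; percent of DMSO vehicle control luminescence.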 Particulars: for viability, T/C: stronger effect = lower value. A digest of the protocol: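 Spheroids of 60% malignant cells, 25% HUVEC and 15% MSC were exposed to targeted agents combined with ipatasertib or abemaciclib. Doses started at or near clinical Cmax (10 microM when unknown) and fell in half-log steps.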

The mark [1] stands for this setting: curve of first compound, second compound 0.1 µM.
Where [2] appears, read: curve of first compound, second compound 0.316 µM.
[3] abbreviates: curve of first compound, second compound 1 µM.
[4] abbreviates: second compound 0.1 µM, first compound 0.0316 µM.
Setting [5] is: second compound 0.1 µM, first compound 0.1 µM.
Setting [6] is: second compound 0.316 µM, first compound 0.0316 µM.
The mark [7] stands for this setting: second compound 0.316 µM, first compound 0.1 µM.
Where [8] appears, read: second compound 1 µM, first compound 0.0316 µM.
The mark [9] stands for this setting: second compound 1 µM, first compound 0.1 µM.
Where [10] appears, read: curve of first compound, second compound 3.16 µM.
[11] abbreviates: curve of first compound, second compound 10 µM.

Where “and” joins values, the source holds several entries; their conditions need not be identical. Equal entries are not always repeated.

Consider `Cn1nccc1Nc1nccc(-c2ccn(C(CO)c3ccc(Cl)c(F)c3)c(=O)c2)n1` (centres undefined) + CCN1CCN(Cc2ccc(Nc3ncc(F)c(-c4cc(F)c5nc(C)n(C(C)C)c5c4)n3)nc2)CC1, for which the 50% inhibitory concentration (IC50) – broadly, the midpoint of a concentration-inhibition curve – (curve of first compound, second compound 0.01 µM) was found to be 7.38 µM; the IC50 (curve of first compound, second compound 0.0316 µM) was determined as 6.8 µM; the IC50 under setting [1] was found to be 9.03 µM; the IC50 under setting [2] is 4.25 µM; the IC50 under setting [3] is less than 0.0316 µM. Moreover, the viability, T/C (in general, the result in the treated group divided by that in the control group, in per cent) runs as follows: (second compound 0.01 µM, first compound 0.0316 µM) 84%; (second compound 0.01 µM, first compound 0.1 µM) 98.2%; (second compound 0.01 µM, first compound 0.316 µM) 105%; (second compound 0.01 µM, first compound 1 µM) 118%; (second compound 0.01 µM, first compound 3.16 µM) 91.6%; (second compound 0.01 µM, first compound 10 µM) 35.1%. Besides, the viability, T/C is 71.3% (second compound 0.0316 µM, first compound 0.0316 µM); 80.8% (second compound 0.0316 µM, first compound 0.1 µM); 84.4% (second compound 0.0316 µM, first compound 0.316 µM); 102% (second compound 0.0316 µM, first compound 1 µM); 74% (second compound 0.0316 µM, first compound 3.16 µM); 38% (second compound 0.0316 µM, first compound 10 µM). Also, the viability, T/C under setting [4] is 56.2%; the viability, T/C under setting [5] was 55.9%; the viability, T/C (second compound 0.1 µM, first compound 0.316 µM) was 63.2%; the viability, T/C (second compound 0.1 µM, first compound 1 µM) is 69.6%; the viability, T/C (second compound 0.1 µM, first compound 3.16 µM) is 60.3%; the viability, T/C (second compound 0.1 µM, first compound 10 µM) is 34.3%. Moreover, the viability, T/C is 52.1% under setting [6]; 55.9% under setting [7]; 61.1% (second compound 0.316 µM, first compound 0.316 µM); 58.8% (second compound 0.316 µM, first compound 1 µM); 54.4% (second compound 0.316 µM, first compound 3.16 µM); 36% (second compound 0.316 µM, first compound 10 µM). Further, the viability, T/C is 40.8% under setting [8]; 48.9% under setting [9]; 52.2% (second compound 1 µM, first compound 0.316 µM); 60% (second compound 1 µM, first compound 1 µM); 57% (second compound 1 µM, first compound 3.16 µM); 40.2% (second compound 1 µM, first compound 10 µM).
Regarding `Cn1ncnc1[C@H]1c2n[nH]c(=O)c3cc(F)cc(c23)N[C@@H]1c1ccc(F)cc1` + CC(C)NCC(C(=O)N1CCN(c2ncnc3c2C(C)CC3O)CC1)c1ccc(Cl)cc1, the IC50 is more than 0.1 µM under setting [1]; less than 0.000316 µM under setting [2]; less than 0.000316 µM under setting [3]; less than 0.000316 µM under setting [10]; less than 0.000316 µM under setting [11]. Further, the viability, T/C runs as follows: (second compound 0.1 µM, first compound 0.000316 µM) 74.2%; (second compound 0.1 µM, first compound 0.001 µM) 78.8%; (second compound 0.1 µM, first compound 0.00316 µM) 60.9%; (second compound 0.1 µM, first compound 0.01 µM) 69.4%; under setting [4], 65.4%; under setting [5], 58.8%. The viability, T/C reads like this: (second compound 0.316 µM, first compound 0.000316 µM) 34.5%; (second compound 0.316 µM, first compound 0.001 µM) 39.5%; (second compound 0.316 µM, first compound 0.00316 µM) 41.2%; (second compound 0.316 µM, first compound 0.01 µM) 38.4%; under setting [6], 38.3%; under setting [7], 33.2%. The viability, T/C (second compound 1 µM, first compound 0.000316 µM) was 22.9%; the viability, T/C (second compound 1 µM, first compound 0.001 µM) is 21.5%; the viability, T/C (second compound 1 µM, first compound 0.00316 µM) was 20.5%; the viability, T/C (second compound 1 µM, first compound 0.01 µM) is 20.4%; the viability, T/C under setting [8] is 20.9%; the viability, T/C under setting [9] is 19%. Moreover, the viability, T/C is 19% (second compound 3.16 µM, first compound 0.000316 µM); 17.1% (second compound 3.16 µM, first compound 0.001 µM); 15.1% (second compound 3.16 µM, first compound 0.00316 µM); 15.4% (second compound 3.16 µM, first compound 0.01 µM); 12.8% (second compound 3.16 µM, first compound 0.0316 µM); 16.1% (second compound 3.16 µM, first compound 0.1 µM). Further, the viability, T/C was 10.3% (second compound 10 µM, first compound 0.000316 µM); 10.1% (second compound 10 µM, first compound 0.001 µM); 10.3% (second compound 10 µM, first compound 0.00316 µM); 9.69% (second compound 10 µM, first compound 0.01 µM); 8.59% (second compound 10 µM, first compound 0.0316 µM); 9.45% (second compound 10 µM, first compound 0.1 µM).
On to `Cn1nccc1Nc1nccc(-c2ccn(C(CO)c3ccc(Cl)c(F)c3)c(=O)c2)n1` (centres undefined), for which the viability, T/C is 101% and 98.5% (compound 0.0316 µM); 103% and 108% (compound 0.1 µM); 108% and 116% (compound 0.316 µM); 126% (compound 1 µM); 94.8% and 100% (compound 3.16 µM); 52.2% and 48.9% (compound 10 µM). Also, the IC50 (curve of compound) was > 10 µM and 9.73 µM.
As for `Cn1cnc2c(F)c(Nc3ccc(Br)cc3Cl)c(C(=O)NOCCO)cc21` + CC(C)NCC(C(=O)N1CCN(c2ncnc3c2C(C)CC3O)CC1)c1ccc(Cl)cc1, the IC50 is 0.164 µM under setting [1]; less than 0.00949 µM under setting [2]; less than 0.00949 µM under setting [3]; less than 0.00949 µM under setting [10]; less than 0.00949 µM under setting [11]. For the same compound, the viability, T/C is 61.9% (second compound 0.1 µM, first compound 0.00949 µM); 62% (second compound 0.1 µM, first compound 0.03 µM); 49.1% (second compound 0.1 µM, first compound 0.0949 µM); 48% (second compound 0.1 µM, first compound 0.3 µM); 35.8% (second compound 0.1 µM, first compound 0.949 µM); 19.7% (second compound 0.1 µM, first compound 3 µM). In addition, the viability, T/C is 33.9% (second compound 0.316 µM, first compound 0.00949 µM); 30.4% (second compound 0.316 µM, first compound 0.03 µM); 25.8% (second compound 0.316 µM, first compound 0.0949 µM); 21.6% (second compound 0.316 µM, first compound 0.3 µM); 18.6% (second compound 0.316 µM, first compound 0.949 µM); 10.3% (second compound 0.316 µM, first compound 3 µM). For the same compound, the viability, T/C (second compound 1 µM, first compound 0.00949 µM) was 19.6%; the viability, T/C (second compound 1 µM, first compound 0.03 µM) is 16.7%; the viability, T/C (second compound 1 µM, first compound 0.0949 µM) is 15.2%; the viability, T/C (second compound 1 µM, first compound 0.3 µM) is 11.8%; the viability, T/C (second compound 1 µM, first compound 0.949 µM) is 9.36%; the viability, T/C (second compound 1 µM, first compound 3 µM) was 4.86%. Further, the viability, T/C (second compound 3.16 µM, first compound 0.00949 µM) is 13.5%; the viability, T/C (second compound 3.16 µM, first compound 0.03 µM) was 11.4%; the viability, T/C (second compound 3.16 µM, first compound 0.0949 µM) was 9.44%; the viability, T/C (second compound 3.16 µM, first compound 0.3 µM) was 9.1%; the viability, T/C (second compound 3.16 µM, first compound 0.949 µM) is 6.43%; the viability, T/C (second compound 3.16 µM, first compound 3 µM) is 3.45%. Moreover, the viability, T/C is 6.91% (second compound 10 µM, first compound 0.00949 µM); 7.44% (second compound 10 µM, first compound 0.03 µM); 7.64% (second compound 10 µM, first compound 0.0949 µM); 5.26% (second compound 10 µM, first compound 0.3 µM); 4.92% (second compound 10 µM, first compound 0.949 µM); 2.28% (second compound 10 µM, first compound 3 µM).
`CCCS(=O)(=O)Nc1ccc(F)c(C(=O)c2c[nH]c3ncc(-c4ccc(Cl)cc4)cc23)c1F`: the viability, T/C (compound 0.0316 µM) was 116% and 100%; the viability, T/C (compound 0.1 µM) is 101% and 100%; the viability, T/C (compound 0.316 µM) is 108%; the viability, T/C (compound 1 µM) is 102% and 108%; the viability, T/C (compound 3.16 µM) is 89.4% and 88.4%; the viability, T/C (compound 10 µM) was 33.9% and 49.1%. Also, under “curve of compound”, the IC50 was 7.13 µM and 9.74 µM.
